≈ marks a conversion by molar mass, not a printed value.

Data set [1] is described as follows: Hygroscopicity by Dynamic Vapor Sorption Analysis (DVS). Type of data set: physicochemical. The settings on record: for Reversibility of water uptake / weight increase / Humidity absorption (in words) / Weight increase (hygroscopicity) / Changes of the crystalline form associated with water uptake: DVS; for Humidity absorption (in words): 0 to 95% RH; for Weight increase (hygroscopicity): humidity 0 to 95% RH, maximum. How it is done: The hygroscopicity was determined by Dynamic Vapor Sorption Analysis (DVS). Approximately 200 mg of each solid state were weight on a sample plate and subjected to the apparatus. The humidity inside was varied in a range from 0 to 95% RH and the mass change (dm [%]) of the samples measured continuously.

The nature of data set [2]: Aqueous solubility in four aqueous buffers with distinct pH values. Type of data set: physicochemical. Conditions: for solubility at 15 min / solubility at 1 h: thermodynamic from solid; for Solubility in aqueous solutions (in words): summary of the four buffers. How it is done:
The solubility properties of the generated solid states were studied in four different aqueous buffers with distinct pH values. Approximately 250 mg of each sample was mixed with 2.5 ml solvent and stirred.

The subject of the next data set is normal cellular splicing. Conditions: cited from earlier work.
For data set [3] the following is noted: phase I trials; dose levels up to 200 mg; without clinically significant abnormal results; cited from earlier work.
A further data set has as its system HIV. The settings on record: preclinical; lasted for several weeks after cessation of treatment; cited from earlier work.
The test system of a further data set is HIV-1 replication. Conditions: prevents export of viral RNA from nucleus to cytoplasm in infected cells; cited from earlier work.
The mark [4] stands for this setting: aqueous buffer, fassif, FaSSiF (SIF-powder), 15 min.
The mark [5] stands for this setting: aqueous buffer, fassif, FaSSiF (SIF-powder), 1 h.
Where [6] appears, read: aqueous buffer, pH 2.2, simulated gastric fluid, 0.01N HCl pH ~2.2, 15 min.
Setting [7] is: aqueous buffer, pH 2.2, simulated gastric fluid, 0.01N HCl pH ~2.2, 1 h.
Where [8] appears, read: aqueous buffer, pH 4.5, aqueous buffer, 20 mM Na-acetate pH 4.5, 15 min.
The mark [9] stands for this setting: aqueous buffer, pH 4.5, aqueous buffer, 20 mM Na-acetate pH 4.5, 1 h.
Where [10] appears, read: aqueous buffer, pH 6.8, aqueous buffer, 50 mM KH2PO4 pH 6.8, 15 min.
Where [11] appears, read: aqueous buffer, pH 6.8, aqueous buffer, 50 mM KH2PO4 pH 6.8, 1 h.

As for `FC(F)(F)Oc1ccc(Nc2ccc3cccc(Cl)c3n2)cc1.O=S(=O)(O)O` [H2SO4, (8-chloro-quinolin-2-yl)-(4-trifluoromethoxyphenyl)-amine], the “Reversibility of water uptake / weight increase” value in data set [1] is on record as “reversible”. In addition, in data set [1], the “Humidity absorption (in words)” value is listed as “low hygroscopicity”. Moreover, the “Weight increase (hygroscopicity)” value in data set [1] was no more than 3.2%. Further, the “Relative weight change (dm)” value is 0% in data set [1] (RH 40% (start)); −0.11% in data set [1] (RH 40 → 0% (first step to 0)); 0.03% in data set [1] (RH 95 → 40% (desorption)); −0.14% in data set [1] (RH → 0% (second step to 0)); −0.04% in data set [1] (RH → 35% (final step)); 0.32% in data set [1] (RH → 75%). Also, the “Relative weight change (dm)” value in data set [1] (RH → 95%) amounted to 3.2%. The solubility at 15 min was 93 µg/mL in data set [2] (aqueous buffer, 20 mM Na-acetate pH 4.5, 15 min); 35 µg/mL in data set [2] (aqueous buffer, 50 mM KH2PO4 pH 6.8, 15 min); 89 µg/mL in data set [2] (simulated gastric fluid, 0.01N HCl pH ~2.2, 15 min); 109 µg/mL in data set [2] (FaSSiF (SIF-powder), 15 min). Moreover, the solubility at 1 h in data set [2] (aqueous buffer, 20 mM Na-acetate pH 4.5, 1 h) was 139 µg/mL; in data set [2] (aqueous buffer, 50 mM KH2PO4 pH 6.8, 1 h), 114 µg/mL; in data set [2] (simulated gastric fluid, 0.01N HCl pH ~2.2, 1 h) it was 152 µg/mL; in data set [2] (FaSSiF (SIF-powder), 1 h), 157 µg/mL. Also, in data set [2], the “Solubility in aqueous solutions (in words)” value was “first-rate solubility”.

As to `FC(F)(F)Oc1ccc(Nc2ccc3cccc(Cl)c3n2)cc1` [free base, (8-chloro-quinolin-2-yl)-(4-trifluoromethoxy-phenyl)-amine], the “Selectivity / effect on normal cellular splicing” value in the data set on normal cellular splicing is “doesn't affect normal cellular splicing”. Moreover, in data set [3], the Tolerability entry is “well tolerated”. For the same compound, in data set [1], the “Humidity absorption (in words)” value is reported as “absorbs more or less not any humidity”. The “Relative weight change (dm)” value in data set [1] (RH 40% (start)) is given as 0%; in data set [1] (RH 40 → 0% (first step to 0)) it was 0%; in data set [1] (RH 95 → 40% (desorption)), 0.03%; in data set [1] (RH → 0% (second step to 0)), 0.02%; in data set [1] (RH → 35% (final step)), 0.02%; in data set [1] (RH → 75%), 0.02%. Also, the “Relative weight change (dm)” value in data set [1] (RH → 95%) was 0.15%. In addition, the “Reduction of viral load” value in the data set on HIV was “sustained reduction of viral load”. In addition, in the data set on HIV-1 replication, the HIV replication result is on record as “inhibits HIV replication”. In addition, the Solubility in data set [2] (0.01N HCl pH ~2.2, 15 min) was 0.003 mg/mL (≈ 8.86 µM); in data set [2] (0.01N HCl pH ~2.2, 1 h), 0.004 mg/mL (≈ 11.8 µM). Also, the solubility at 15 min in data set [2] (setting [4]) was found to be 64 µg/mL (≈ 189 µM). The same compound returned a solubility at 1 h in data set [2] (setting [5]) of 61 µg/mL (≈ 180 µM). Also, in data set [2] (compound from reworked WO 2010/143169 procedure, recrystallized, pH values simulating physiological conditions), the “Solubility in aqueous solutions with different pH-values” was “virtual insolubility”.

Consider `Cl.FC(F)(F)Oc1ccc(Nc2ccc3cccc(Cl)c3n2)cc1` [HCl, (8-chloro-quinolin-2-yl)-(4-trifluoromethoxyphenyl)-amine], for which the “Changes of the crystalline form associated with water uptake” value (“Changes” below) in data set [1] was “significant changes”. Also, the “Reversibility of water uptake / weight increase” value in data set [1] is “irreversible”. The “Relative weight change (dm)” value is on record as 0% in data set [1] (RH 40% (start)); −0.11% in data set [1] (RH 40 → 0% (first step to 0)); 7.8% in data set [1] (RH 95 → 40% (desorption)); 2.8% in data set [1] (RH → 0% (second step to 0)); 5.1% in data set [1] (RH → 35% (final step)); 1.7% in data set [1] (RH → 75%). Also, the “Relative weight change (dm)” value in data set [1] (RH → 95%) amounted to 14.3%. Besides, the solubility at 15 min in data set [2] (setting [4]) is 111 µg/mL; in data set [2] (setting [6]), 116 µg/mL; in data set [2] (setting [8]) it was 74 µg/mL; in data set [2] (setting [10]), 68 µg/mL. The solubility at 1 h was 198 µg/mL in data set [2] (setting [5]), 147 µg/mL in data set [2] (setting [7]), 136 µg/mL in data set [2] (setting [9]) and 104 µg/mL in data set [2] (setting [11]). Besides, the “Solubility in aqueous solutions (in words)” value in data set [2] is reported as “first-rate solubility”.

For the compound `FC(F)(F)Oc1ccc(Nc2ccc3cccc(Cl)c3n2)cc1.O=S(=O)(O)c1ccccc1` [besylate, (8-chloro-quinolin-2-yl)-(4-trifluoromethoxyphenyl)-amine], the “Changes” value in data set [1] was “only minor”. In addition, in data set [1], the “Reversibility of water uptake / weight increase” value is given as “reversible”. In addition, the “Humidity absorption (in words)” value in data set [1] is given as “low hygroscopicity”. For the same compound, the “Weight increase (hygroscopicity)” value in data set [1] is given as “up to 1.9%”. Also, the “Relative weight change (dm)” value in data set [1] (RH 40% (start)) is reported as 0%; in data set [1] (RH 40 → 0% (first step to 0)), −0.04%; in data set [1] (RH 95 → 40% (desorption)) it was 1.1%; in data set [1] (RH → 0% (second step to 0)) it was −0.09%; in data set [1] (RH → 35% (final step)), 1.0%; in data set [1] (RH → 75%) it was 0.19%. Further, the “Relative weight change (dm)” value in data set [1] (RH → 95%) is 1.9%. Moreover, the solubility at 15 min in data set [2] (setting [4]) was 77 µg/mL; in data set [2] (setting [6]), 23 µg/mL; in data set [2] (setting [8]), 24 µg/mL; in data set [2] (setting [10]) it was 3 µg/mL. Moreover, the solubility at 1 h in data set [2] (setting [5]) was 45 µg/mL; in data set [2] (setting [7]) it was 32 µg/mL; in data set [2] (setting [9]) it was 16 µg/mL; in data set [2] (setting [11]) it was 7 µg/mL.

`FC(F)(F)Oc1ccc(Nc2ccc3cccc(Cl)c3n2)cc1` [hemi-edisylate, (8-chloro-quinolin-2-yl)-(4-trifluoromethoxyphenyl)-amine]: the “Changes” value in data set [1] is recorded as “significant changes”. Besides, the “Reversibility of water uptake / weight increase” value in data set [1] was “irreversible”. Moreover, the “Relative weight change (dm)” value in data set [1] (RH 40% (start)) is reported as 0%; in data set [1] (RH 40 → 0% (first step to 0), listed as Hemiedisylate salt), −0.65%; in data set [1] (RH 95 → 40% (desorption), listed as Hemiedisylate salt) it was 3.5%; in data set [1] (RH → 0% (second step to 0), listed as Hemiedisylate salt) it was 0.4%; in data set [1] (RH → 35% (final step), listed as Hemiedisylate salt), 2.9%; in data set [1] (RH → 75%, listed as Hemiedisylate salt), 0.74%. For the same compound, the “Relative weight change (dm)” value in data set [1] (RH → 95%, listed as Hemiedisylate salt) turned out to be 36.2%. Besides, the Solubility worked out at 0.075 mg/mL (≈ 221 µM) in data set [2] (0.01N HCl pH ~2.2, 15 min) and 0.065 mg/mL (≈ 192 µM) in data set [2] (0.01N HCl pH ~2.2, 1 h). The solubility at 15 min in data set [2] (setting [8]) worked out at 48 µg/mL (≈ 142 µM); in data set [2] (setting [10]), 18 µg/mL (≈ 53.1 µM). The results for the solubility at 1 h in data set [2] (setting [9]) and in data set [2] (setting [11]) were 50 µg/mL (≈ 148 µM) and 23 µg/mL (≈ 67.9 µM), respectively.

On to `Cc1ccc(S(=O)(=O)O)cc1.FC(F)(F)Oc1ccc(Nc2ccc3cccc(Cl)c3n2)cc1` [tosylate, (8-chloro-quinolin-2-yl)-(4-trifluoromethoxyphenyl)-amine], for which the “Humidity absorption (in words)” value in data set [1] was “absorbs more or less not any humidity”. The “Relative weight change (dm)” value is 0% in data set [1] (RH 40% (start)); −0.05% in data set [1] (RH 40 → 0% (first step to 0)); −0.03% in data set [1] (RH 95 → 40% (desorption)); −0.09% in data set [1] (RH → 0% (second step to 0)); −0.05% in data set [1] (RH → 35% (final step)); 0.05% in data set [1] (RH → 75%). In addition, the “Relative weight change (dm)” value in data set [1] (RH → 95%) is listed as 0.24%. The values for the solubility at 15 min in data set [2] (setting [4]) and in data set [2] (setting [6]) were 30 µg/mL and 6 µg/mL, respectively. Further, the values for the solubility at 1 h in data set [2] (setting [5]), in data set [2] (setting [7]) and in data set [2] (setting [9]) were 13 µg/mL, 10 µg/mL and 3 µg/mL, respectively.

Source of the values: patent publication US10745357B2, “Process for preparing quinolin-2-yl-phenylamine derivatives and their salts” (priority 2016, dated 2020).
